For 45 molecules, IC50 results are on record in EP0475531A1, “Benzoic acid phenylester compounds and elastase inhibiting compositions containing the same” (Asahi Kasei Kogyo Kabushiki Kaisha, priority 1990, dated 1992).

For this assay, the target named is T1, human leukocyte elastase (Homo sapiens, UniProt P08246).
T1 sequence (P08246 30-267): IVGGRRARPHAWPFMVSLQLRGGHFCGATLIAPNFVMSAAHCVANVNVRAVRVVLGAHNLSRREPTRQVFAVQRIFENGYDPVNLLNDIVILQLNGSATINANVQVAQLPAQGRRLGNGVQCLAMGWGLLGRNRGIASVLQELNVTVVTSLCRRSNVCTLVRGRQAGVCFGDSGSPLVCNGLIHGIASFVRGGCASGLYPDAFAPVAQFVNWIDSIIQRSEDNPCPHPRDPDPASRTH
In words: in vitro human leukocyte elastase inhibiting activity (fluorogenic substrate, method of JP-A-2-101017 with slight modification). The format is biochemical. Particulars: 50% inhibitory concentration; substrate methoxysuccinyl-Ala-Ala-Pro-Val-7-amido-4-methylcoumarin; 0.2 M Tris-hydrochloride buffer (0.02 M CaCl2, 0.005% Triton X-100), pH 7.2; compound and enzyme incubated at 25°C for 20 minutes; read-out: IC50. How it is done: Thus, methoxysuccinyl-Ala-Ala-Pro-Val-7-amido-4-methylcoumarin was used as a substrate for human leukocyte elastase and the 50% inhibitory concentration (IC₅₀) was measured. The enzymatic reaction was carried out in 0.2 M Tris-hydrochloride buffer (containing 0.02 M CaCl₂ and 0.005% Triton X-100) at pH 7.2. Each mixture of test compound solution and the enzyme solution was incubated at 25°C for 20 minutes.

Take `CC1(C(=O)Nc2ccc(C(=O)Oc3cc(Cl)cc(Cl)c3)cc2)CC1` [Compound 1, 3,5-dichlorophenyl 4-(1-methylcyclopropanecarbonylamino)benzoate]: the IC50 (in general, the point on the concentration scale where inhibition reaches its midpoint) turned out to be 37 nM.
Under `CCC(=O)Nc1ccc(C(=O)Oc2cc(Cl)cc(Cl)c2)cc1` [Compound 2, 3,5-dichlorophenyl 4-(propanoylamino)benzoate] stands 7 nM; under `CCCC(=O)Nc1ccc(C(=O)Oc2cc(Cl)cc(Cl)c2)cc1` [Compound 3, 3,5-dichlorophenyl 4-(butanoylamino)benzoate], 1.9 nM.
Next, `CCCCC(=O)Nc1ccc(C(=O)Oc2cc(Cl)cc(Cl)c2)cc1` [Compound 4, 3,5-dichlorophenyl 4-(pentanoylamino)benzoate]: 23 nM; `CCCCCC(=O)Nc1ccc(C(=O)Oc2cc(Cl)cc(Cl)c2)cc1` [Compound 5, 3,5-dichlorophenyl 4-(hexanoylamino)benzoate]: 37 nM.
Next, `CCCCCCCC(=O)Nc1ccc(C(=O)Oc2cc(Cl)cc(Cl)c2)cc1` [Compound 6, 3,5-dichlorophenyl 4-(octanoylamino)benzoate]: 110 nM.
`CC(C)C(=O)Nc1ccc(C(=O)Oc2cc(Cl)cc(Cl)c2)cc1` [Compound 7, 3,5-dichlorophenyl 4-(isobutanoylamino)benzoate]: the IC50 was 4.1 nM.
Under `CC(C)(C)C(=O)Nc1ccc(C(=O)Oc2cc(Cl)cc(Cl)c2)cc1` [Compound 8, 3,5-dichlorophenyl 4-(pivaloylamino)benzoate] stands 6.4 nM; under `O=C(Cc1ccccc1)Nc1ccc(C(=O)Oc2cc(Cl)cc(Cl)c2)cc1` [Compound 9, 3,5-dichlorophenyl 4-(phenylacetylamino)benzoate], 5.3 nM.
Turning to `O=C(Oc1cc(Cl)cc(Cl)c1)c1ccc(NC(=O)C(Cl)(Cl)Cl)cc1` [Compound 10, 3,5-dichlorophenyl 4-(trichloroacetylamino)benzoate], the 50% inhibitory concentration (IC50) worked out at 28 nM.
Next, `O=C(Oc1cc(Cl)cc(Cl)c1)c1ccc(NC(=O)C(F)(F)F)cc1` [Compound 11, 3,5-dichlorophenyl 4-(trifluoroacetylamino)benzoate]: 67 nM; `O=C(Oc1cc(Cl)cc(Cl)c1)c1ccc(NC(=O)C(F)(F)C(F)(F)F)cc1` [Compound 12, 3,5-dichlorophenyl 4-(pentafluoropropanoylamino)benzoate]: 10 nM; `CC=CC(=O)Nc1ccc(C(=O)Oc2cc(Cl)cc(Cl)c2)cc1` [Compound 13, 3,5-dichlorophenyl 4-(2-butenoylamino)benzoate]: 9 nM.
As for `C=C(C)C(=O)Nc1ccc(C(=O)Oc2cc(Cl)cc(Cl)c2)cc1` [Compound 14, 3,5-dichlorophenyl 4-(2-methylpropenoylamino)benzoate], the IC50 turned out to be 3.5 nM.
Regarding `O=C(Oc1cc(Cl)cc(Cl)c1)c1ccc(NC(=O)C2CC2)cc1` [Compound 15, 3,5-dichlorophenyl 4-(cyclopropanecarbonylamino)benzoate], the IC50 is 7.7 nM.
Next, `O=C(Oc1cc(Cl)cc(Cl)c1)c1ccc(NC(=O)C2CCC2)cc1` [Compound 16, 3,5-dichlorophenyl 4-(cyclobutanecarbonylamino)benzoate]: 9.2 nM; `O=C(Oc1cc(Cl)cc(Cl)c1)c1ccc(NC(=O)C2CCCCC2)cc1` [Compound 18, 3,5-dichlorophenyl 4-(cyclohexanecarbonylamino)benzoate]: 10 nM.
Turning to `CC(C)CC(=O)Nc1ccc(C(=O)Oc2cc(Cl)cc(Cl)c2)cc1` [Compound 19, 3,5-dichlorophenyl 4-(3-methylbutanoylamino)benzoate], the 50% inhibitory concentration (IC50) came out at 96 nM.
Under `CC(C(=O)Nc1ccc(C(=O)Oc2cc(Cl)cc(Cl)c2)cc1)c1ccccc1` (stereo not drawn) [Compound 20, 3,5-dichlorophenyl 4-(2-methyl-2-phenylacetylamino)benzoate] stands 12 nM.
In the case of `O=C(C=Cc1ccccc1)Nc1ccc(C(=O)Oc2cc(Cl)cc(Cl)c2)cc1` [Compound 21, 3,5-dichlorophenyl 4-(cinnamoylamino)benzoate], the IC50 was found to be 140 nM.
Under `O=C(O)CCC(=O)Nc1ccc(C(=O)Oc2cc(Cl)cc(Cl)c2)cc1` [Compound 22, 3,5-dichlorophenyl 4-(succinylamino)benzoate] stands 23 nM; under `O=C(Oc1cc(Cl)cc(Cl)c1)c1ccc(N2C(=O)CCC2=O)cc1` [Compound 23, 3,5-dichlorophenyl 4-(succinimidyl)benzoate], 140 nM.
Under `CS(=O)(=O)Nc1ccc(C(=O)Oc2cc(Cl)cc(Cl)c2)cc1` [Compound 24, 3,5-dichlorophenyl 4-(methanesulfonylamino)benzoate] stands 98 nM; under `O=C(Oc1cc(Cl)cc(Cl)c1)c1ccc(NS(=O)(=O)c2ccccc2)cc1` [Compound 25, 3,5-dichlorophenyl 4-(benzenesulfonylamino)benzoate], 260 nM.
Under `CNC(=O)Nc1ccc(C(=O)Oc2cc(Cl)cc(Cl)c2)cc1` [Compound 26, 3,5-dichlorophenyl 4-(3-methylureido)benzoate] stands 47 nM; under `CCNC(=O)Nc1ccc(C(=O)Oc2cc(Cl)cc(Cl)c2)cc1` [Compound 27, 3,5-dichlorophenyl 4-(3-ethylureido)benzoate], 21 nM; under `CCCNC(=O)Nc1ccc(C(=O)Oc2cc(Cl)cc(Cl)c2)cc1` [Compound 28, 3,5-dichlorophenyl 4-(3-propylureido)benzoate], 16 nM.
For `CCCCNC(=O)Nc1ccc(C(=O)Oc2cc(Cl)cc(Cl)c2)cc1` [Compound 29, 3,5-dichlorophenyl 4-(3-butylureido)benzoate], the IC50 was found to be 20 nM.
Next, `CCCCCNC(=O)Nc1ccc(C(=O)Oc2cc(Cl)cc(Cl)c2)cc1` [Compound 30, 3,5-dichlorophenyl 4-(3-pentylureido)benzoate]: 190 nM; `CC(C)NC(=O)Nc1ccc(C(=O)Oc2cc(Cl)cc(Cl)c2)cc1` [Compound 31, 3,5-dichlorophenyl 4-(3-isopropylureido)benzoate]: 13 nM; `CN(C)C(=O)Nc1ccc(C(=O)Oc2cc(Cl)cc(Cl)c2)cc1` [Compound 32, 3,5-dichlorophenyl 4-(3,3-dimethylureido)benzoate]: 5.9 nM.
Next, `COC(=O)Nc1ccc(C(=O)Oc2cc(Cl)cc(Cl)c2)cc1` [Compound 33, 3,5-dichlorophenyl 4-(methoxycarbonylamino)benzoate]: 26 nM; `O=C(Nc1ccc(C(=O)Oc2cc(Cl)cc(Cl)c2)cc1)OCc1ccccc1` [Compound 34, 3,5-dichlorophenyl 4-(benzyloxycarbonylamino)benzoate]: 260 nM; `O=C(Nc1ccc(C(=O)Oc2cc(Cl)cc(Cl)c2)cc1)OCCO` [Compound 35, 3,5-dichlorophenyl 4-(2-hydroxyethoxycarbonylamino)benzoate]: 38 nM.
Consider `CC(=O)OC(=O)Nc1ccc(C(=O)Oc2cc(Cl)cc(Cl)c2)cc1` [Compound 36, 3,5-dichlorophenyl 4-(acetoxycarbonylamino)benzoate], for which the IC50 amounted to 31 nM.
In the case of `O=C(Cc1cccs1)Nc1ccc(C(=O)Oc2cc(Cl)cc(Cl)c2)cc1` [Compound 37, 3,5-dichlorophenyl 4-(2-thienylacetylamino)benzoate], the IC50 was 79 nM.
Under `CSC(C)C(=O)Nc1ccc(C(=O)Oc2cc(Cl)cc(Cl)c2)cc1` (stereo not drawn) [Compound 38, 3,5-dichlorophenyl 4-(2-methylthiopropanoylamino)benzoate] stands 18 nM; under `CC(S)C(=O)Nc1ccc(C(=O)Oc2cc(Cl)cc(Cl)c2)cc1` (stereo not drawn) [Compound 39, 3,5-dichlorophenyl 4-(2-mercaptopropanoylamino)benzoate], 96 nM; under `CC(C)(C(=O)O)C(=O)Nc1ccc(C(=O)Oc2cc(Cl)cc(Cl)c2)cc1` [Compound 40, 3,5-dichlorophenyl 4-(2,2-dimethylmalonylamino)benzoate], 3.4 nM.
With `CC(C)(CC(=O)Nc1ccc(C(=O)Oc2cc(Cl)cc(Cl)c2)cc1)C(=O)O` [Compound 41, 3,5-dichlorophenyl 4-(3,3-dimethylsuccinylamino)benzoate], the IC50 was 47 nM.
Next, `CC(C(=O)O)C(C)C(=O)Nc1ccc(C(=O)Oc2cc(Cl)cc(Cl)c2)cc1` (stereo not drawn) [Compound 42, 3,5-dichlorophenyl 4-(meso-2,3-dimethylsuccinylamino)benzoate]: 2.1 nM.
As for `O=C(O)CCCC(=O)Nc1ccc(C(=O)Oc2cc(Cl)cc(Cl)c2)cc1` [Compound 43, 3,5-dichlorophenyl 4-(glutarylamino)benzoate], the IC50 is 7.6 nM.
As for `O=C(Oc1cc(Cl)cc(Cl)c1)c1ccc(NC(=O)C2CCCCC2C(=O)O)cc1` (stereo not drawn) [Compound 44, 3,5-dichlorophenyl 4-(2-hydroxycarbonylcyclohexanecarbonylamino)benzoate], the IC50 was found to be 18 nM.
Under `CC(C)(CCl)C(=O)Nc1ccc(C(=O)Oc2cc(Cl)cc(Cl)c2)cc1` [Compound 45, 3,5-dichlorophenyl 4-(3-chloro-2,2-dimethylpropanoylamino)benzoate] stands 18 nM; under `CC(C)(CC#N)C(=O)Nc1ccc(C(=O)Oc2cc(Cl)cc(Cl)c2)cc1` [Compound 46, 3,5-dichlorophenyl 4-(3-cyano-2,2-dimethylpropanoylamino)benzoate], 6.7 nM.
